Results published in patent US20180049996A1, “THERAPEUTIC AGENT FOR CHRONIC RESPIRATORY DISEASE AND COMPOSITION FOR INHIBITING CARDIAC FIBROSIS” (NIPPON HYPOX LABORATORIES INCORPORATED, priority 2015, published 2018).

Columns and labels:
[1] = system: Myocardial Disorder Induced by Doxorubicin; test: Histopathologic examination of the hearts (transmission electron microscope), myocardial disorder induced by doxorubicin; format: in vivo, female SD rats; conditions: Test group 2: doxorubicin + HTHQ 50 mg/kg; day 7
Protocol: Doxorubicin is used to produce disease-model animals of cardiomyopathy. The doxorubicin and 2,3,5-trimethylhydroquinone-1-hexyl ether (HTHQ) as the hydroquinone derivative represented by the general formula (1) described above of the present invention were simultaneously administered to female SD rats of 4 week old after birth to examine the effect of the action. The test groups consisted of the control group to which sterile saline was administered; test group 1 to which doxorubicin (13 mg/kg body weight) alone was administered; test group 2 to which doxorubicin (13 mg/kg body weight) and HTHQ (50 mg/kg body weight) were administered in combination; and test group 3 to which doxorubicin (13 mg/kg body weight), HTHQ (50 mg/kg body weight) and recombinant human erythropoietin (400 IU/kg body weight) were administered in combination. […] The test group 3 is used to confirm the presence or absence of the inhibitory effect brought about by combining HTHQ and rHuEPO on myocardial disorder.
Doxorubicin was orally administered in a single dose to the rats in test groups 1 to 3. 2,3,5-trimethylhydroquinone-1-hexyl ether (HTHQ) was orally administered to the rats in test groups 2 and 3 twice in total: 3 days before the administration of doxorubicin and on the day of the administration. […]

[2] = system: Reactive oxygen species (ROS); test: Reactive oxygen species (ROS) in BAL cell fluid, COPD model; format: in vivo, C57BL/6N mice; conditions: HTHQ 10 and 20 mg/kg/day oral; tobacco smoke 10 days + LPS; compared to COPD group
Protocol: (§1) 6 week old male SPF C57BL/6N mice, 20 to 25 g of body weight, were purchased from CORETEC INC. (South Korea).
The tests were conducted as follows. The mice in the COPD (chronic obstructive pulmonary disease) model group of the test groups were exposed to tobacco smoke for 1 hour per day (8 cigarettes/day) for 10 days and LPS (5 μg/50 μL/mouse) was intranasally administered to the mice on day 8 after the start of the tests. […]
The mice in the test groups were euthanized 72 hours after the LPS administration and the mice in the normal control group were euthanized on day 11 after the start of the tests by intraperitoneal injection of pentobarbital (Hanrimu pharmaceutical, South Korea) at 50 mg/kg and then the bronchi were excised. […] After preparing slide samples from 100 μL of BAL cell fluid using Cytospin (4° C., 1000 rpm×5 min), the cell numbers of inflammatory cells (neutrophil, macrophages) present in the BAL fluid were counted using a Diff-Quik stain kit.
Reactive oxygen species (ROS) amounts in BAL cell fluid were measured. […] Reactive oxygen species (ROS) amounts within cells were measured at an excitation wavelength of 485 nm and a fluorescence wavelength of 530 nm using a fluorescence plate analyzer (a product from PerkinElmer, Inc.).

[3] = system: Lung Inflammation Induced by Tobacco Smoke; test: Histopathologic examination of lungs, COPD model; format: in vivo, C57BL/6N mice; conditions: HTHQ 10 and 20 mg/kg/day oral; tobacco smoke 10 days + LPS; compared to COPD model group
Protocol: as §1
The tests were conducted as follows. The mice in the COPD (chronic obstructive pulmonary disease) model group of the test groups were exposed to tobacco smoke for 1 hour per day (8 cigarettes/day) for 10 days and LPS (5 μg/50 μL/mouse) was intranasally administered to the mice on day 8 after the start of the tests. Roflumilast, the positive control substance, was orally administered to the mice in the positive control substance-administered group at 10 mg/kg body weight/day, and then they were exposed to tobacco smoke for 10 days starting from 1 hour after the administration of roflumilast, and LPS (5 μg/50 μL/mouse) was intranasally administered to the mice on day 8 after the start of the tests. Here, roflumilast is a selective phosphodiesterase 4 inhibitor and is a substance which is used as a therapeutic agent of COPD and asthma (approved in Europe and the United States, not approved in Japan). […] All the animals were euthanized on day 11 and bronchoalveolar lavage (BAL) examination and histopathologic examination of lungs were conducted. The mice in the normal control group and the test groups were fed sterile tap water and standard food for rodents during the test period. […]

CCCCCCOc1cc(C)c(O)c(C)c1C [HTHQ, 2,3,5-trimethylhydroquinone-1-hexyl ether]
findings in myocardial cells (transmission electron microscope) [1]: loss of striations was alleviated | amount of reactive oxygen species (ROS) in BAL cell fluid [2]: effectively reduced | infiltration of inflammatory cells in peribronchial lung tissue (HE stain) [3]: significantly reduced in a dose-dependent manner
